The values that follow are results of earlier work, collected in patent US12611419B2, “Liposomal composition for use in a method of treating Parkinson's disease” (INNOMEDICA HOLDING AG, priority 2017, dated 2026).

Data set [1] deals with rodent model of Parkinson's disease. Particulars: in vivo.
Another data set relates to B4galnt1 transgenic mice. The following applies: mice deficient in GM1 family gangliosides.
The next data set concerns spinal cord injuries. The following applies: patients.

On to `CCCCCCCCCCCCC/C=C/C(O)C(COC1OC(CO)C(OC2OC(CO)C(OC3OC(CO)C(O)C(OC4OC(CO)C(O)C(O)C4O)C3NC(C)=O)C(OC3(C(=O)O)CC(O)C(NC(C)=O)C(C(O)C(O)CO)O3)C2O)C(O)C1O)NC(=O)C(Cl)Cl` (centres unmarked) [LIGA20], for which, in data set [1], the “Parkinson's symptoms” value is on record as “reduce Parkinson's symptoms”.

For the compound monosialotetrahexosylganglioside [GM1], in the data set on B4galnt1 transgenic mice, the “pathological CNS manifestations” value is “ameliorated these pathological CNS manifestations”. For the same compound, in the data set with PD patients (10 PD patients, 1000 mg i.v. then 200 mg/day subcutaneous, 18 weeks), the “safety, open pilot study” value was “safe and well tolerated”. Also, in the data set on PD patients (10 PD patients, 18 weeks), the “anti-GM1 antibody titres, open pilot study” value was “none of the patients developed elevated anti-GM1 antibody titres”. In addition, in the data set with PD patients (GM1-treated groups, baseline, week 24, 1-2 years later), the “PET (11)C-methylphenidate binding” value is given as “significant slowing of binding loss in several striatal regions”. The “safety of long-term administration” value in the data set with PD patients (delayed start study) is “safe and well tolerated”. For the same compound, in the data set on PD patients (delayed start study, week 24), the “UPDRS motor scores, early-start group” value is “significant improvement in UPDRS motor scores”. In addition, the “UPDRS motor scores, five-year open extension” value with PD patients (end of 5 years of GM1 use, off period) was “lower UPDRS motor scores”. Besides, in the data set on PD patients (randomized placebo-controlled study, 45 individuals, 16 weeks), the “UPDRS motor scores vs placebo” value is given as “significant differences between groups”. For the same compound, in the data set with PD patients (subcutaneous administration), the “adverse events at the injection site” value is “pain, irritation of the skin site and severe haematoma at the injection site occur”. Besides, the “outcome in spinal cord injuries” value in the data set with spinal cord injuries is reported as “positive outcomes in patients”.
